Experimental data from the NIST ThermoML archive (doi:10.1016/j.jct.2013.10.039).
Numbers after ± are expanded uncertainties.

Settings: Liquid, Closed cell (Static) method

| Compound | vapor or sublimation pressure (313.15 K) [kPa] | vapor or sublimation pressure (323.15 K) [kPa] | vapor or sublimation pressure (333.15 K) [kPa] | vapor or sublimation pressure (343.15 K) [kPa] | vapor or sublimation pressure (353.15 K) [kPa] | vapor or sublimation pressure (363.15 K) [kPa] | vapor or sublimation pressure (373.15 K) [kPa] | vapor or sublimation pressure (383.15 K) [kPa] | vapor or sublimation pressure (393.15 K) [kPa] | vapor or sublimation pressure (351.81 K) [kPa] | also measured |
| --- | --- | --- | --- | --- | --- | --- | --- | --- | --- | --- | --- |
| Cc1ccc(C)o1 [2,5-dimethylfuran] | 13.94 ± 0.15 | 21.54 ± 0.24 | 32.2 ± 0.35 | 46.74 ± 0.5 | 66.08 ± 0.71 | 91.23 ± 0.98 | 123.28 ± 1.3 | 163.43 ± 1.7 | 212.88 ± 2.3 |  |  |
| OCc1ccco1 [2-hydroxymethylfuran] | 0.242 ± 0.01 | 0.475 ± 0.02 | 0.89 ± 0.04 | 1.597 ± 0.019 | 2.755 ± 0.03 | 4.588 ± 0.049 | 7.398 ± 0.077 | 11.59 ± 0.12 | 17.68 ± 0.18 | 2.577 ± 0.029 | vapor or sublimation pressure (273.11 K): 0.009 ± 0.001 kPa; vapor or sublimation pressure (283.08 K): 0.022 ± 0.001 kPa; vapor or sublimation pressure (293.16 K): 0.053 ± 0.002 kPa; vapor or sublimation pressure (303.09 K): 0.115 ± 0.003 kPa; vapor or sublimation pressure (323.16 K): 0.471 ± 0.019 kPa; vapor or sublimation pressure (331.87 K): 0.815 ± 0.033 kPa; vapor or sublimation pressure (333.17 K): 0.882 ± 0.036 kPa; vapor or sublimation pressure (341.85 K): 1.479 ± 0.06 kPa; vapor or sublimation pressure (343.19 K): 1.611 ± 0.019 kPa; vapor or sublimation pressure (353.2 K): 2.787 ± 0.031 kPa; vapor or sublimation pressure (362.09 K): 4.368 ± 0.047 kPa; vapor or sublimation pressure (363.2 K): 4.649 ± 0.05 kPa; vapor or sublimation pressure (372.04 K): 7.065 ± 0.074 kPa; vapor or sublimation pressure (382.09 K): 11.09 ± 0.12 kPa; vapor or sublimation pressure (392.15 K): 17.1 ± 0.18 kPa; vapor or sublimation pressure (402.18 K): 25.11 ± 0.26 kPa; vapor or sublimation pressure (412.11 K): 36.53 ± 0.38 kPa |
| CC(=O)CC(C)C [4-methylpentan-2-one] | 5.882 ± 0.063 | 9.417 ± 0.098 | 14.56 ± 0.15 | 21.82 ± 0.23 | 31.8 ± 0.33 | 45.19 ± 0.46 | 62.78 ± 0.64 | 85.44 ± 0.87 | 114.12 ± 1.2 | 30.29 ± 0.31 | vapor or sublimation pressure (331.98 K): 13.85 ± 0.14 kPa; vapor or sublimation pressure (341.81 K): 20.72 ± 0.21 kPa; vapor or sublimation pressure (362.04 K): 43.51 ± 0.45 kPa; vapor or sublimation pressure (372.03 K): 60.56 ± 0.62 kPa; vapor or sublimation pressure (382.04 K): 82.62 ± 0.85 kPa; vapor or sublimation pressure (392.07 K): 110.74 ± 1.1 kPa |
